One series relates to complementary DNA. In words: Melting temperature of PNA-DNA complexes (thermal denaturation). Type of series: binding. The settings on record: for Tm: PNA bound to complementary DNA; for ΔTm: increase over aegPNA 1a-DNA duplex. The text has this: Although the stabilizing effect of tetrahydrofuran for PNA-DNA duplex is slightly lower than that of cyclopentane (3d vs 9 and 2a, Table 2), it strikes a balance between water solubility and binding properties and, therefore the combination of those two backbone modifications could be tailor-made to meet the specific requirements.

In series [1] the test system is DNA with a single base mismatch. In words: Discrimination of single base mismatches (Tm of mismatched PNA-DNA duplex). Type of series: binding. The settings on record: for ΔTm (Tm), TC mismatch: number before the brackets / ΔTm (Tm), TG mismatch: number before the brackets / ΔTm (Tm), TT mismatch: number before the brackets: PNA-DNA duplex with single base mismatch; for ΔTm (Tm), TC mismatch: number in brackets / ΔTm (Tm), TG mismatch: number in brackets / ΔTm (Tm), TT mismatch: number in brackets: against fully matched duplex. The text has this:
The sequence specificity of thyclotide 3d was examined by determining the change in Tm of a PNA-DNA duplex when a single base mismatch is present. […] The large differences in melting temperature between matched PNA-DNA duplex and mismatch PNA-DNA of thyclotide 3d allows one to control hybridization conditions to exclude the formation of mismatched PNA-DNA by adjust the temperature. Such enhanced single base pair mismatch-discrimination capability could make thyclotide 3d become a powerful tool for the detection of point-mutations and single nucleotide polymorphisms (SNPs).

The nature of series [2]: CD spectra, conformation of PNA. Type of series: physicochemical. As to the method:
The CD spectra of thyclotides 3a-3d were measured. […] However, in the case of thyclotides 3a-3d, distinct distinctive positive peaks around 220 and 269 nm and negative peaks around 204 and 247 nm were noticed. […] The amplitude of the cotton effects increases as more tetrahydrofuran modifications are introduced.

On to GATGTGATA-AEEA [1a, reference compound], for which the Tm in the series with complementary DNA amounted to 42.0 °C. Besides, in series [1], the “ΔTm (Tm), TC mismatch: number before the brackets” value turned out to be 22.9; the “ΔTm (Tm), TC mismatch: number in brackets” value is −19.2; the “ΔTm (Tm), TG mismatch: number before the brackets” value is reported as 25.4; the “ΔTm (Tm), TG mismatch: number in brackets” value is on record as −16.6. In series [1], the “ΔTm (Tm), TT mismatch: number before the brackets” value turned out to be 28.2 and the “ΔTm (Tm), TT mismatch: number in brackets” value is recorded as −13.8. Moreover, in series [2], the “CD spectrum / conformation” value is reported as “does not show any distinct peaks”.
Turning to G*A*T*G*T*G*A*T*A*-AEEA [3d], in the series with complementary DNA, the Tm worked out at 77 °C and the thermal shift (ΔTm) turned out to be 35 °C. In series [1], the “ΔTm (Tm), TC mismatch: number before the brackets” value was 50.7; the “ΔTm (Tm), TC mismatch: number in brackets” value was −26.2; the “ΔTm (Tm), TG mismatch: number before the brackets” value was found to be 55.6; the “ΔTm (Tm), TG mismatch: number in brackets” value is −21.4. In series [1], the “ΔTm (Tm), TT mismatch: number before the brackets” value stood at 58.2 and the “ΔTm (Tm), TT mismatch: number in brackets” value is −18.8. Further, the “difference in melting temperature between fully matched duplex and duplex with a single base mismatch (ΔTm), in words” value in series [1] (compared with aegPNA, tcypPNA 2a and mixPNA 9) is “significantly higher than that of the corresponding aegPNA”.
Consider GAT*GT*GAT*A-AEEA [3c], for which, in the series on complementary DNA, the Tm came out at 54.9 °C and the ΔTm amounted to 12.9 °C.
Turning to “G#A#T#G#T#G#A#T#A#-AEEA [2a, reference compound]”, in the series with complementary DNA, the midpoint of thermal melting (Tm) worked out at 93.7 °C and the ΔTm amounted to 51.7 °C. For the same substance, in series [1], the “ΔTm (Tm), TC mismatch: number in brackets” value is −30.6; the “ΔTm (Tm), TG mismatch: number in brackets” value is reported as −20.6; the “ΔTm (Tm), TT mismatch: number in brackets” value was −22.8.
With GATGT*GATA-AEEA [3a], in the series with complementary DNA, the Tm is 44.7 °C and the ΔTm stood at 2.7 °C.
The matching figures for GAT*GTGAT*A-AEEA [3b]: 49.7 °C and 7.7 °C.
For the substance G*A*T*G#T#G#A*T*A*-AEEA [compound 9], in the series on complementary DNA, the Tm was 84.5 °C and the ΔTm is 42.5 °C. Also, in series [1], the “ΔTm (Tm), TC mismatch: number before the brackets” value was 57.7; the “ΔTm (Tm), TC mismatch: number in brackets” value is −27.4; the “ΔTm (Tm), TG mismatch: number in brackets” value is given as −20.3; the “ΔTm (Tm), TT mismatch: number in brackets” value was −19.5.

Values taken from US20230242587A1, “THYCLOTIDES” (The United States of America,as represented by the …, priority 2020, published 2023).
